Assay results reported in ChEMBL document CHEMBL1201862, “PubChem BioAssay data set” (2004).
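Interpolation was linear, between the two tested concentrations surrounding the appropriate level; five concentrations were tested over 48 hours in 96-well plates. GI50: concentration for 50% inhibition of growth.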 Calls of active or inactive are those of the source. Rule as the data show it: active = GI50 up to about 1.1 µM and inactive = higher.

What was measured:
Experiment in all cases: NCI tumour cell line growth inhibition, 48 h
ACHN = system: ACHN
CCRF-CEM = system: CCRF-CEM
HCT-116 = system: HCT-116
HL-60 = system: HL-60
IGROV-1 = system: IGROV-1
K562 = system: K562
NCI-H460 = system: NCI-H460
NCI-H522 = system: NCI-H522
SF-295 = system: SF-295
SF-539 = system: SF-539
SW-620 = system: SW-620
TK-10 = system: TK-10
U-251 = system: U-251
UACC-257 = system: UACC-257
UACC-62 = system: UACC-62
Hs-578T = system: Hs-578T
MDA-N = system: MDA-N

SMILES	GI50 (ACHN)	GI50 (CCRF-CEM)	GI50 (HCT-116)	GI50 (HL-60)	GI50 (IGROV-1)	GI50 (K562)	GI50 (NCI-H460)	GI50 (NCI-H522)	GI50 (SF-295)	GI50 (SF-539)	GI50 (SW-620)	GI50 (TK-10)	GI50 (U-251)	GI50 (UACC-257)	GI50 (UACC-62)	GI50 (Hs-578T)	GI50 (MDA-N)
CNC(=O)OCC1C2=C(C(=O)C(C)=C(N)C2=O)N2CC3C(N3C)C12OC (configuration not stated)	3.8 µM (inactive)	3.76 µM (inactive)	10.9 µM (inactive)	1.92 µM (inactive)	12.4 µM (inactive)	25.6 µM (inactive)	0.0867 µM (active)	3.19 µM (inactive)	5.02 µM (inactive)	10.1 µM (inactive)	10.8 µM (inactive)	27.7 µM (inactive)	14.1 µM (inactive)	21.4 µM (inactive)	9.93 µM (inactive)	–	–
N#Cc1c(N)nc(Sc2ccccc2N)c(C#N)c1-c1ccccc1	19.9 µM (inactive)	–	15.7 µM (inactive)	0.141 µM (active)	16.9 µM (inactive)	9.53 µM (inactive)	14.8 µM (inactive)	–	–	26.9 µM (inactive)	30.9 µM (inactive)	11.5 µM (inactive)	19.6 µM (inactive)	24.9 µM (inactive)	10.3 µM (inactive)	–	–
O=C(CC(=O)N1N=C(N2CCCCC2)CC1c1ccccc1)Nc1ccc(Cl)cc1 (configuration not stated)	> 100 µM (inactive)	> 100 µM (inactive)	> 100 µM (inactive)	> 100 µM (inactive)	> 100 µM (inactive)	–	> 100 µM (inactive)	> 100 µM (inactive)	> 100 µM (inactive)	–	> 100 µM (inactive)	> 100 µM (inactive)	> 100 µM (inactive)	> 100 µM (inactive)	> 100 µM (inactive)	> 100 µM (inactive)	> 100 µM (inactive)
O=C1Oc2ccccc2N/C1=C/C(=O)c1ccc([N+](=O)[O-])cc1	> 100 µM (inactive)	61 µM (inactive)	> 100 µM (inactive)	–	> 100 µM (inactive)	> 100 µM (inactive)	> 100 µM (inactive)	23 µM (inactive)	> 100 µM (inactive)	> 100 µM (inactive)	–	> 100 µM (inactive)	> 100 µM (inactive)	> 100 µM (inactive)	45.8 µM (inactive)	23.2 µM (inactive)	–
C=CCCCC1CCCNC1=S (configuration not stated)	> 100 µM (inactive)	–	> 100 µM (inactive)	–	> 100 µM (inactive)	> 100 µM (inactive)	> 100 µM (inactive)	> 100 µM (inactive)	> 100 µM (inactive)	> 100 µM (inactive)	> 100 µM (inactive)	> 100 µM (inactive)	> 100 µM (inactive)	> 100 µM (inactive)	> 100 µM (inactive)	> 100 µM (inactive)	> 100 µM (inactive)
CCOc1ccc2nc(-c3ccc(O)cc3)sc2c1	61.2 µM (inactive)	–	69.3 µM (inactive)	2 µM (inactive)	> 100 µM (inactive)	> 100 µM (inactive)	77.1 µM (inactive)	4.82 µM (inactive)	20.1 µM (inactive)	45 µM (inactive)	> 100 µM (inactive)	73.1 µM (inactive)	43.9 µM (inactive)	0.166 µM (active)	56.9 µM (inactive)	–	> 100 µM (inactive)
COc1ccc(C2=N/C(=C\c3ccccc3)C(=O)O2)cc1	> 100 µM (inactive)	31 µM (inactive)	–	12.2 µM (inactive)	> 100 µM (inactive)	34 µM (inactive)	> 100 µM (inactive)	–	> 100 µM (inactive)	44.3 µM (inactive)	> 100 µM (inactive)	> 100 µM (inactive)	62.7 µM (inactive)	> 100 µM (inactive)	–	40.8 µM (inactive)	–
c1ccc(Nc2nnc(-c3ccccc3Nc3ccccc3-c3nnc(Nc4ccccc4)s3)s2)cc1	> 100 µM (inactive)	> 100 µM (inactive)	> 100 µM (inactive)	> 100 µM (inactive)	7.14 µM (inactive)	> 100 µM (inactive)	> 100 µM (inactive)	> 100 µM (inactive)	> 100 µM (inactive)	> 100 µM (inactive)	> 100 µM (inactive)	> 100 µM (inactive)	> 100 µM (inactive)	> 100 µM (inactive)	> 100 µM (inactive)	–	> 100 µM (inactive)
CC1(C)[C@@H](Cn2nnc3c(N)ncnc32)CC[C@@]1(C)CO	> 100 µM (inactive)	> 100 µM (inactive)	> 100 µM (inactive)	–	–	> 100 µM (inactive)	–	–	> 100 µM (inactive)	> 100 µM (inactive)	> 100 µM (inactive)	> 100 µM (inactive)	> 100 µM (inactive)	> 100 µM (inactive)	> 100 µM (inactive)	> 100 µM (inactive)	> 100 µM (inactive)
S=C1N(c2ccc(Cl)cc2)C2=C(/N=N/c3ccccc3)C(=Nc3ccccc3S2)N1c1ccccn1	14.5 µM (inactive)	5.36 µM (inactive)	14.1 µM (inactive)	12 µM (inactive)	0.164 µM (active)	–	11 µM (inactive)	–	15.7 µM (inactive)	16.6 µM (inactive)	16.4 µM (inactive)	14.8 µM (inactive)	11 µM (inactive)	15.8 µM (inactive)	–	16.4 µM (inactive)	15.4 µM (inactive)
